# From US20160213742A1, “COMPOSITIONS AND METHODS FOR THE TREATMENT OF FUNGAL INFECTIONS” (priority 2013, published 2016)
# Experiments:
# Assay type in all cases: cell-based
# [1] = system: Neutrophils purified from human peripheral blood; assay: Human Neutrophil Transwell Migration Assay; details: 37° C., 45 minutes, % of the maximum migration possible
# From the text: Neutrophils were purified from human peripheral blood utilizing PolymorphPrep. Red blood cells were lysed with a lysis buffer and the cells were washed, counted and resuspended in assay buffer. Neutrophils (approximately 50,000 to 100,000 in number) were placed over 5-micon pore sized transwell plates in 24-well format with test compounds in the bottom chamber of each well. A negative control of media alone in the bottom chamber was set up in triplicate. A positive control where the neutrophils were added directly to the bottom well was set up in triplicate.
# The plates were incubated at 37° C. for 45 minutes to allow for migration. After this time, migration was confirmed visually and then an aliquot (⅙^th of total cells) from each well was taken for ATP detection via luminescence with ATPlite (PerkinElmer) to quantify the number of migrated cells. The averaged reading for random migration detected in the negative control was subtracted from all readings to obtain the corrected migration number. These numbers were then divided by the averaged reading from the positive control to get the % Neutrophil Migration of the maximum migration possible.
# A. fumigatus MX 5944 = assay: MEC assay (Example 31); details: RPMI pH 7.0, 35° C., 24-48 hr
# Method: (§1) The test organisms consisted of strains from the Micromyx collection. Reference isolates were originally received from the American Type Culture Collection (ATCC; Manassas, Va.). Organisms received at Micromyx were initially streaked for isolation on Sabouraud dextrose or potato dextrose agar. Colonies were picked by swab from the medium and resuspended in the appropriate broth containing cryoprotectant. The suspensions were aliquoted into cryogenic vials and maintained at −80° C. Prior to testing, Candida isolates were streaked from the frozen vials on Sabouraud dextrose agar. The yeast isolates were incubated at overnight at 35° C. before use. The fungal isolates were incubated at least 7 days on Sabouraud dextrose agar slants at 35° C. before harvesting.
# (§2) Isolates were tested in RPMI medium (Catalog No. SH30011.04; Lot No. AWA92121B; HyClone Labs, Logan, Utah) which was prepared according to CLSI guidelines. The pH of the medium was adjusted to 7.0 with 1 N NaOH. The medium was sterile filtered using a 0.2 μm PES filter and stored at 4° C. until used.
# (§3) The MIC assay method employed automated liquid handlers to conduct serial dilutions and liquid transfers. Automated liquid handlers included the Multidrop 384 (Labsystems, Helsinki, Finland), Biomek 2000 and Biomek FX (Beckman Coulter, Fullerton Calif.). The wells in columns 2-12 in standard 96-well microdilution plates (Costar 3795) were filled with 150 μl of the correct diluent (50% DMSO for investigational compounds, 100% DMSO for comparator compounds). These would become the mother plates' from which ‘daughter’ or test plates would be prepared. Stocks were diluted to 40× the desired top concentration in the test plates in the indicated solvent, and 300 μL of the 40× stock was dispensed into the appropriate well in Column 1 of the mother plates. The Biomek 2000 was used to make serial serial 2-fold dilutions through Column 11 in the “mother plate”. The wells of Column 12 contained no drug and served as the organism growth control wells.
# (§4) The daughter plates were loaded with 185 μL per well of RPMI described above using the Multidrop 384. The daughter plates were prepared using the Biomek FX which transferred 5 μL of drug solution from each well of a mother plate to the corresponding well of the daughter plate in a single step.
# (§5) A standardized inoculum of each organism was prepared. For Candida, colonies were picked from the streak plate and a suspension was prepared in RPMI medium equal to a 0.5 McFarland standard, then diluted 1:100 in RPMI and transferred to compartments of sterile reservoirs divided by length (Beckman Coulter). For the Aspergillus isolates, previously prepared and quantitated suspensions were used to make dilutions in RPMI to reach 20× the final concentration. These dilutions were also transferred to compartments of sterile reservoirs divided by length (Beckman Coulter). The final concentration of the Aspergillus isolates was approximately 0.2-2.5×10^4 CFU/mL.
# (§6) The Biomek 2000 was used to inoculate the plates. Daughter plates were placed on the Biomek 2000 work surface reversed so that inoculation took place from low to high drug concentration. The Biomek 2000 delivered 10 μL of standardized inoculum into each well. Thus, the wells of the daughter plates ultimately contained 185 μL of RPMI, 5 μL of drug solution, and 10 μL of inoculum. The final concentration of DMSO in the test well was 2.5% for the evaluated comparators and 1.25% for the investigational agents.
# (§7) Plates were stacked 3 high, covered with a lid on the top plate, placed into plastic bags, and incubated at 35° C. for approximately 24-48 hr prior to reading. Plates were read when inoculum was confluent in growth wells. Plates were viewed from the bottom using a plate viewer. […] MICs were read where visible growth of the organism was inhibited. MECs were read where the growth shifted to a small, rounded, compact hyphal form as compared to the hyphal growth seen in the growth control well.
# A. fumigatus MYA-3626 = assay: MEC assay (Example 31); details: RPMI pH 7.0, 35° C., 24-48 hr
# Method: as §1, §2, §3, §4, §5, §6, §7
# A. flavus MX 5948 = assay: MEC assay (Example 31); details: RPMI pH 7.0, 35° C., 24-48 hr
# Method: as §1, §2, §3, §4, §5, §6, §7
# A. fumigatus MYA-4609 = assay: MEC assay (Example 31); details: RPMI pH 7.0, 35° C., 24-48 hr
# Method: as §1, §2, §3, §4, §5, §6, §7
# A. fumigatus ATCC 13073 = assay: MEC assay (Example 31); details: RPMI pH 7.0, 35° C., 24-48 hr
# Method: as §1, §2, §3, §4, §5, §6, §7
# C. krusei ATCC 14243 = assay: microbe, parasite or virus in culture; details: ATCC 14243, pH 7
# Method: as §1, §2, §3, §4, §5, §6, §7
# C. albicans ATCC 90028 = assay: microbe, parasite or virus in culture; details: ATCC 90028, pH 7
# Method: as §1, §2, §3, §4, §5, §6, §7
# [2] = system: C. parapsilosis ATCC 22019; assay: microbe, parasite or virus in culture; details: ATCC 22019, pH 7
# Method: as §1, §2, §3, §4, §5, §6, §7
# C. glabrata ATCC 90030 = assay: microbe, parasite or virus in culture; details: ATCC 90030, pH 7
# Method: as §1, §2, §3, §4, §5, §6, §7
SMILES,% Neutrophil Migration ([1]; conc 0.001 μg/mL),% Neutrophil Migration ([1]; conc 0.01 μg/mL),% Neutrophil Migration ([1]; conc 0.1 μg/mL),% Neutrophil Migration ([1]; conc 1 μg/mL),% Neutrophil Migration ([1]; conc 10 μg/mL),MEC (A. fumigatus MX 5944),MEC (A. fumigatus MYA-3626),MEC (A. flavus MX 5948),MEC (A. fumigatus MYA-4609),MEC (A. fumigatus ATCC 13073),MIC (C. krusei ATCC 14243),MIC (C. albicans ATCC 90028),MIC [2],MIC (C. glabrata ATCC 90030)
CC[C@H](C)C[C@H](C)CCCCCCCCC(=O)N[C@H]1C[C@@H](O)[C@@H](NCCN)NC(=O)[C@@H]2[C@@H](O)CCN2C(=O)[C@H]([C@H](O)CCNC(=O)[C@@H](N)CCCCNC(=O)[C@H](Cc2ccccc2)NC(=O)[C@H](CC(C)C)NC(=O)[C@H](CCSC)NC=O)NC(=O)[C@H]([C@H](O)[C@@H](O)c2ccc(O)cc2)NC(=O)[C@@H]2C[C@@H](O)CN2C(=O)[C@H]([C@@H](C)O)NC1=O [Compound 15],9.6%,47.3%,13.0%,−6.3%,−7.0%,0.12 µg/mL,0.12 µg/mL,0.12 µg/mL,0.12 µg/mL,0.12 µg/mL,8 µg/mL,1 µg/mL,16 µg/mL,2 µg/mL
CC[C@H](C)C[C@H](C)CCCCCCCCC(=O)N[C@H]1C[C@@H](O)[C@@H](NCCN)NC(=O)[C@@H]2[C@@H](O)CCN2C(=O)[C@H]([C@H](O)CCNC(=O)[C@H](CCCCN)NC(=O)[C@H](Cc2ccccc2)NC(=O)[C@H](CC(C)C)NC(=O)[C@H](CCSC)NC=O)NC(=O)[C@H]([C@H](O)[C@@H](O)c2ccc(O)cc2)NC(=O)[C@@H]2C[C@@H](O)CN2C(=O)[C@H]([C@@H](C)O)NC1=O [Compound 14],0.9%,1.9%,14.8%,21.4%,−9.0%,0.12 µg/mL,0.25 µg/mL,0.12 µg/mL,0.12 µg/mL,0.25 µg/mL,16 µg/mL,2 µg/mL,16 µg/mL,16 µg/mL
CC[C@H](C)C[C@H](C)CCCCCCCCC(=O)N[C@H]1C[C@@H](O)[C@@H](NCCN)NC(=O)[C@@H]2[C@@H](O)CCN2C(=O)[C@H]([C@H](O)CCNC(=O)[C@H](CCSC)NC(=O)[C@H](CC(C)C)NC(=O)[C@H](CCSC)NC=O)NC(=O)[C@H]([C@H](O)[C@@H](O)c2ccc(O)cc2)NC(=O)[C@@H]2C[C@@H](O)CN2C(=O)[C@H]([C@@H](C)O)NC1=O [Compound 28],−0.4%,2.2%,43.4%,−0.2%,−7.4%,0.25 µg/mL,0.25 µg/mL,0.12 µg/mL,0.25 µg/mL,0.25 µg/mL,8 µg/mL,1 µg/mL,8 µg/mL,2 µg/mL
CC[C@H](C)C[C@H](C)CCCCCCCCC(=O)N[C@H]1C[C@@H](O)[C@@H](NCCNC(=O)[C@H](Cc2ccccc2)NC(=O)[C@H](CC(C)C)NC(=O)[C@H](CCSC)NC=O)NC(=O)[C@@H]2[C@@H](O)CCN2C(=O)[C@H]([C@H](O)CCN)NC(=O)[C@H]([C@H](O)[C@@H](O)c2ccc(O)cc2)NC(=O)[C@@H]2C[C@@H](O)CN2C(=O)[C@H]([C@@H](C)O)NC1=O [Compound 2],−5.3%,28.5%,97.5%,30.6%,−11.0%,0.12 to 1 µg/mL,0.25-1^ μg/mL,0.06 to 1 µg/mL,0.12 to 1 µg/mL,0.12 to 2 µg/mL,8 to 16 µg/mL,2 µg/mL,16 µg/mL,4 µg/mL
